Data set [1] deals with ddY male mice. In words: Effect on pentobarbital sodium-induced sleeping time (loss of righting reflex). Type of data set: in vivo. As to conditions: test compound 10 mg/kg p.o. one hour before pentobarbital-Na 25 mg/kg s.c. As for the experimental part:
The test was conducted to examine influence of Compound (I) of the present invention on pentobarbital sodium-induced sleeping time, according to the method of Iyakuhin no Kaihatsu, Vol. 9, Iyakuhin no Tansaku I, “antihypnotic”, p. 220-226, Hirokawa Shoten.
For the test, ddY male mice (19-21 g body weight; Japan SLC, Inc.) were used. All test compounds were used by suspending in distilled water (Otsuka Pharmaceutical Factory, Inc.) containing 0.5 volume/weight % methylcellulose (0.5% MC: Wako Pure Chemical Industries, Ltd.). A volume of 0.1 mL was administered per 10 g body weight of mice.
Groups of seven mice were used. To the control groups were orally administrated 0.5% MC, whereas a suspension of the test compound was orally administered to the test compound administered groups. One hour after the administration, pentobarbital sodium (pentobarbital-Na: Tokyo Chemical Industry Co., Ltd., 25 mg/kg) was administered subcutaneously. Mouse placed in a recumbent position, the mouse immediately returns to a proper upright position (this is known as righting reflex). However, the administration of pentobarbital sodium eliminated the righting reflex in the control groups. The time period in which the administration of […] eliminated the righting reflex was regarded as a sleeping time. By a measurement of time disappearing righting reflex immediately after the administration, the sleeping time was determined.

[2] abbreviates: Table 5-1, groups of seven, controls 52.12 ± 5.20 (r5) and 35.56 ± 5.21 (r11).
Where [3] appears, read: Table 5-2, groups of seven, controls 40.00 ± 5.32 (r5) and 45.87 ± 4.17 (r12).

The record followed here is patent US7928098B2, “Therapeutic and/or preventive agents for a sleep disorder” (Kyowa Hakko Kirin Co., Ltd., priority 2005, dated 2011).

What is called melting point is the temperature, or range, at which the solid turns liquid.

Consider `O=C(Nc1nc(-c2ccco2)c(-c2ccncc2)s1)c1ccncc1` [Compound 1, N-[4-(2-Furyl)-5-(4-pyridyl)thiazol-2-yl]pyridine-4-carboxamide], for which the “Sleeping time (min) Mean value ± standard deviation” value in data set [1] (setting [2]) turned out to be 15.58 ± 8.50 min.

With `O=C(Nc1nc(-c2ccco2)c(-c2ccncc2)s1)c1cccnc1` [Compound 5, N-[4-(2-Furyl)-5-(4-pyridyl)thiazol-2-yl]pyridine-3-carboxamide], in data set [1] (setting [2]), the “Sleeping time (min) Mean value ± standard deviation” value came out at 0.82 ± 0.82 min. The same measure, in the same setting: with `O=C(Nc1nc(-c2ccco2)c(-c2ccncc2)s1)c1ccco1` [Compound 7, N-[4-(2-Furyl)-5-(4-pyridyl)thiazol-2-yl]furan-2-carboxamide] the figure was 6.38 ± 4.58 min. On the same count and under the same terms, with `O=C(Nc1nc(-c2ccco2)c(-c2ccncc2)s1)c1ccoc1` [Compound 8, N-[4-(2-Furyl)-5-(4-pyridyl)thiazol-2-yl]furan-3-carboxamide] the figure was 4.16 ± 4.16 min; with `O=C(Nc1nc(-c2ccco2)c(-c2ccncc2)s1)c1ccc(Cn2ccnc2)cc1` [Compound 11, N-[4-(2-Furyl)-5-(4-pyridyl)thiazol-2-yl]-4-(imidazole-1-ylmethyl)benzamide], 22.75 ± 6.63 min. Take `O=C(Nc1nc(-c2ccco2)c(C(=O)c2ccc(F)cc2)s1)c1ccncc1` [Compound 78, N-[5-(4-Fluorobenzoyl)-4-(2-furyl)thiazol-2-yl]pyridine-4-carboxamide]: in data set [1] (setting [3]), the “Sleeping time (min) Mean value ± standard deviation” value is 8.66 ± 4.67 min. `O=C(Nc1nc(-c2ccco2)c(C(=O)c2ccccn2)s1)c1ccncc1` [Compound 95, N-[4-(2-Furyl)-5-(pyridin-2-ylcarbonyl)thiazol-2-yl]pyridine-4-carboxamide] gave a melting point of 218 to 227 °C. Besides, the “Sleeping time (min) Mean value ± standard deviation” value in data set [1] (setting [2]) is reported as 0.45 ± 0.45 min.

Turning to `O=C(c1ccccn1)c1sc(NC(=O)C2CC2)nc1-c1ccco1` [Compound 99, N-[4-(2-Furyl)-5-(pyridin-2-ylcarbonyl)thiazol-2-yl]cyclopropanecarboxamide], the melting point fell in the range of 191 to 192 °C. Besides, the “Sleeping time (min) Mean value ± standard deviation” value in data set [1] (setting [3]) was 0.05 ± 0.02 min.

`N#Cc1ccc(C(=O)Nc2nc(-c3ccco3)c(C(=O)c3ccccn3)s2)cc1` [Compound 114, 4-Cyano-N-[4-(2-furyl)-5-(pyridin-2-ylcarbonyl)thiazol-2-yl]benzamide] showed a melting point of 232 to 235 °C. Moreover, in data set [1] (setting [3]), the “Sleeping time (min) Mean value ± standard deviation” value is on record as 0.63 ± 0.53 min. `Cc1ncc(C(=O)Nc2nc(-c3ccco3)c(C(=O)c3ccccn3)s2)cn1` [Compound 136, N-[4-(2-Furyl)-5-(pyridin-2-ylcarbonyl)thiazol-2-yl]-2-methylpyrimidine-5-carboxamide]: the melting point is 255 to 265 °C (dec.). Also, the “Sleeping time (min) Mean value ± standard deviation” value in data set [1] (setting [2]) came out at 1.89 ± 1.81 min.

In the case of `O=C(Nc1nc(-c2ccco2)c(C(=O)c2ccccn2)s1)c1ccco1` [Compound 142, N-[4-(2-Furyl)-5-(pyridin-2-ylcarbonyl)thiazol-2-yl]furan-2-carboxamide], the melting point lay within 184 to 185 °C. In data set [1] (setting [3]), the “Sleeping time (min) Mean value ± standard deviation” value is 4.52 ± 4.41 min. Regarding `COC(=O)Nc1nc(-c2ccco2)c(C(=O)c2ccccn2)s1` [Compound 157, Methyl N-[4-(2-furyl)-5-(pyridin-2-ylcarbonyl)thiazol-2-yl]carbamate], in data set [1] (setting [3]), the “Sleeping time (min) Mean value ± standard deviation” value was 9.39 ± 5.68 min. `O=C(Nc1nc(-c2ccco2)c(C(=O)C2CCCC2)s1)c1ccncc1` [Compound 336, N-[5-(Cyclopentylcarbonyl)-4-(2-furyl)thiazol-2-yl]pyridine-4-carboxamide] registered a melting point of 168 to 181 °C. In data set [1] (setting [3]), the “Sleeping time (min) Mean value ± standard deviation” value was found to be 1.60 ± 1.56 min. The matching figures for `O=C(Nc1nc(-c2ccco2)c(C(=O)C2CCOCC2)s1)c1ccncc1` [Compound 360, N-[4-(2-Furyl)-5-(tetrahydropyran-4-ylcarbonyl)thiazol-2-yl]pyridine-4-carboxamide]: 202 to 209 °C and 0.03 ± 0.02 min.

As for `O=C(Nc1nc(-c2ccco2)c(C(=O)C2CCOCC2)s1)C1CC1` [Compound 361, N-[4-(2-Furyl)-5-(tetrahydropyran-4-ylcarbonyl)thiazol-2-yl]cyclopropanecarboxamide], the melting point is 182 to 183 °C. Also, in data set [1] (setting [2]), the “Sleeping time (min) Mean value ± standard deviation” value worked out at 1.65 ± 1.40 min. Turning to `Cc1ccc(C(=O)Nc2nc(-c3ccco3)c(C(=O)C3CCOCC3)s2)cc1` [Compound 365, N-[4-(2-Furyl)-5-(tetrahydropyran-4-ylcarbonyl)thiazol-2-yl]-4-methylbenzamide], the melting point was 190 to 192 °C. Moreover, in data set [1] (setting [3]), the “Sleeping time (min) Mean value ± standard deviation” value was 0.05 ± 0.05 min. As for `COc1cccc(C(=O)Nc2nc(-c3ccco3)c(C(=O)C3CCOCC3)s2)c1` [Compound 367, N-[4-(2-Furyl)-5-(tetrahydropyran-4-ylcarbonyl)thiazol-2-yl]-3-methoxybenzamide], the melting point lay in the range of 198 to 200 °C. The “Sleeping time (min) Mean value ± standard deviation” value in data set [1] (setting [2]) worked out at 0.10 ± 0.10 min.

For `O=C(Nc1nc(-c2ccco2)c(C(=O)C2CCOCC2)s1)c1ccc(F)cc1` [Compound 373, 4-Fluoro-N-[4-(2-furyl)-5-(tetrahydropyran-4-ylcarbonyl)-thiazol-2-yl]benzamide], the melting point lay within 131 to 132 °C. Besides, in data set [1] (setting [3]), the “Sleeping time (min) Mean value ± standard deviation” value was 0.03 ± 0.02 min. Take `Cc1ccc(C(=O)Nc2nc(-c3ccco3)c(C(=O)C3CCOCC3)s2)cn1` [Compound 409, N-[4-(2-Furyl)-5-(tetrahydropyran-4-ylcarbonyl)thiazol-2-yl]-2-methylpyridine-5-carboxamide]: the “Sleeping time (min) Mean value ± standard deviation” value in data set [1] (setting [3]) amounted to 0.05 ± 0.05 min. The same measure, in the same setting: then `O=C(CN1CCOCC1)Nc1nc(-c2ccco2)c(C(=O)C2CCOCC2)s1` [Compound 463, N-[4-(2-Furyl)-5-(tetrahydropyran-4-ylcarbonyl)thiazol-2-yl]-2-morpholinoacetamide], with 0.00 ± 0.00 min. Compound `CC(C)(O)CN1CCN(CC(=O)Nc2nc(-c3ccco3)c(C(=O)C3CCOCC3)s2)CC1` [Compound 470, N-[4-(2-Furyl)-5-(tetrahydropyran-4-ylcarbonyl)thiazol-2-yl]-2-[4-(2-hydroxy-2-methylpropyl)piperazin-1-yl]acetamide] gave a melting point of 106 to 108 °C. Regarding `COC(C)(C)CN1CCN(CC(=O)Nc2nc(-c3ccco3)c(C(=O)C3CCOCC3)s2)CC1` [Compound 471, N-[4-(2-Furyl)-5-(tetrahydropyran-4-ylcarbonyl)thiazol-2-yl]-2-[4-(2-methoxy-2-methylpropyl)piperazin-1-yl]acetamide], the melting point was in the range of 105 to 107 °C. Same read-out and setting: then `COC1(CN2CCN(CC(=O)Nc3nc(-c4ccco4)c(C(=O)C4CCOCC4)s3)CC2)CC1` [Compound 472, N-[4-(2-Furyl)-5-(tetrahydropyran-4-ylcarbonyl)thiazol-2-yl]-2-{4-[(1-methoxycyclopropyl)methyl]piperazin-1-yl}acetamide], with 155 to 157 °C; and `CN1CCCN(CC(=O)Nc2nc(-c3ccco3)c(C(=O)C3CCOCC3)s2)CC1` [Compound 481, N-[4-(2-Furyl)-5-(tetrahydropyran-4-ylcarbonyl)thiazol-2-yl]-2-(4-methyl-1,4-diazepan-1-yl)acetamide], with 94 to 96 °C; and `O=C(CNC12CC3CC(CC(C3)C1)C2)Nc1nc(-c2ccco2)c(C(=O)C2CCOCC2)s1` [Compound 482, N-[4-(2-Furyl)-5-(tetrahydropyran-4-ylcarbonyl)thiazol-2-yl]-2-(adamantan-1-ylamino)acetamide], with 168 to 170 °C. In turn, `O=C(CNC12CC3CC(CC(O)(C3)C1)C2)Nc1nc(-c2ccco2)c(C(=O)C2CCOCC2)s1` [Compound 483, N-[4-(2-Furyl)-5-(tetrahydropyran-4-ylcarbonyl)thiazol-2-yl]-2-(3-hydroxyadamantan-1-ylamino)acetamide] displayed a melting point of 176 to 178 °C. Still for that read-out and setting: then `CCOC(=O)Nc1nc(-c2ccco2)c(C(=O)C2CCOCC2)s1` [Compound 486, Ethyl N-[4-(2-furyl)-5-(tetrahydropyran-4-ylcarbonyl)thiazol-2-yl]carbamate], with 152 to 153 °C; and `Cc1ncc(C(=O)Nc2nc(-c3ccco3)c(C(=O)C3CCSCC3)s2)cn1` [Compound 494, N-[4-(2-Furyl)-5-(tetrahydrothiopyran-4-ylcarbonyl)thiazol-2-yl]-2-methylpyrimidine-5-carboxamide], with 238 to 240 °C. Take `O=C(Nc1nc(-c2ccco2)c(C(=O)c2ccccc2)s1)c1ccncc1` [Compound 508, N-[5-Benzoyl-4-(2-furyl)thiazol-2-yl]pyridine-4-carboxamide]: the “Sleeping time (min) Mean value ± standard deviation” value in data set [1] (setting [3]) was found to be 14.26 ± 4.35 min. Compound `COc1ccc(-c2c[nH]c(-c3nc(-c4ccco4)c(C(=O)C4CCOCC4)s3)n2)cc1` [Compound 520, 4-(2-Furyl)-2-[4-(4-methoxyphenyl)imidazol-2-yl]thiazol-5-yl tetrahydropyran-4-yl ketone] had a melting point of 178 to 180 °C.
